In one assay the target is T1, Caspase-3 (Homo sapiens, UniProt P42574).
T1 sequence (P42574 whole entry): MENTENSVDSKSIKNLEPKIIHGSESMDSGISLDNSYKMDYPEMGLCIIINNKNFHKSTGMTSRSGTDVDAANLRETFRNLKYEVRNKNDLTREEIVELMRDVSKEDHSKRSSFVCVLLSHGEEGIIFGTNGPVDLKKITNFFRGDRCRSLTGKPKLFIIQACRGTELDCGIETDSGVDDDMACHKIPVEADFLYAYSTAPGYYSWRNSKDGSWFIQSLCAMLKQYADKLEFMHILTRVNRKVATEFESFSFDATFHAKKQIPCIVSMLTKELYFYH
In words: SAR Analysis of small molecule inhibitors of Sentrin-specific proteases (SENPs) using a Caspase-3 Selectivity assay. [Related pubchem assays (depositor defined):AID2540, AID2599, AID434973, AID489001]. Format: functional.

The target of assay [1] is T2, Sentrin-specific protease 6 (Homo sapiens, UniProt Q9GZR1).
T2 sequence (Q9GZR1 whole entry): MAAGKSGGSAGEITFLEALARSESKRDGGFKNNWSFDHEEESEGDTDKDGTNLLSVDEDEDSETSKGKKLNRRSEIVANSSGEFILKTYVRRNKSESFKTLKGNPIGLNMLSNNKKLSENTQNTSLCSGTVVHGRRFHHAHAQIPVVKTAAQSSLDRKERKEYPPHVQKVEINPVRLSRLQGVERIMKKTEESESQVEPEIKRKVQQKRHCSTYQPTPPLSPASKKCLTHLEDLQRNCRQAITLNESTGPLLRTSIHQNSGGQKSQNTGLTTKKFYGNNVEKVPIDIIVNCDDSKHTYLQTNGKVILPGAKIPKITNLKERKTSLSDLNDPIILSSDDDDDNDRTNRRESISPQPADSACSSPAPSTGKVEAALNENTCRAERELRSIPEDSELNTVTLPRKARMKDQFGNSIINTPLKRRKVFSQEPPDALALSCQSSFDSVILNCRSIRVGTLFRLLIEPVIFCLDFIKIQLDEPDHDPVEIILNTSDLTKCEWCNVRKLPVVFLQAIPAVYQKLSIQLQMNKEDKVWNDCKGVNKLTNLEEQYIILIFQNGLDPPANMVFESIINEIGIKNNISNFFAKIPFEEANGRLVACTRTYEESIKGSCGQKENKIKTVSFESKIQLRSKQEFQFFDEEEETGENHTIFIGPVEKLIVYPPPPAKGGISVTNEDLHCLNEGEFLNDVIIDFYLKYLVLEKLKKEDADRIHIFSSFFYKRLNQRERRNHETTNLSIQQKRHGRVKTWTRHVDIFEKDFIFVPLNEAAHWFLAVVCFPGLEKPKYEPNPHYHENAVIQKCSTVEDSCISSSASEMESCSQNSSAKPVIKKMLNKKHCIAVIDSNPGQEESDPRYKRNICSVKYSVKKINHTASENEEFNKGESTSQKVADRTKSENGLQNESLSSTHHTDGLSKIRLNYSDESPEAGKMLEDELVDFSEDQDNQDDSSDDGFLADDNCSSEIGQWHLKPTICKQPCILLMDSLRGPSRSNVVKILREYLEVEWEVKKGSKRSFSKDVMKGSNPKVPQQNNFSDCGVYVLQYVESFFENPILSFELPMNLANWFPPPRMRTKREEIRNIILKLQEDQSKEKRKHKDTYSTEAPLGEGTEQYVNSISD
In words: SAR Analysis of small molecule inhibitors of Sentrin-specific protease 6 (SENP6) using a Luminescent assay. [Related pubchem assays (depositor defined):AID2582, AID2599]. Format: functional.

Assay [2] addresses T3, Sentrin-specific protease 7 (Homo sapiens, UniProt Q9BQF6).
T3 sequence (Q9BQF6 whole entry): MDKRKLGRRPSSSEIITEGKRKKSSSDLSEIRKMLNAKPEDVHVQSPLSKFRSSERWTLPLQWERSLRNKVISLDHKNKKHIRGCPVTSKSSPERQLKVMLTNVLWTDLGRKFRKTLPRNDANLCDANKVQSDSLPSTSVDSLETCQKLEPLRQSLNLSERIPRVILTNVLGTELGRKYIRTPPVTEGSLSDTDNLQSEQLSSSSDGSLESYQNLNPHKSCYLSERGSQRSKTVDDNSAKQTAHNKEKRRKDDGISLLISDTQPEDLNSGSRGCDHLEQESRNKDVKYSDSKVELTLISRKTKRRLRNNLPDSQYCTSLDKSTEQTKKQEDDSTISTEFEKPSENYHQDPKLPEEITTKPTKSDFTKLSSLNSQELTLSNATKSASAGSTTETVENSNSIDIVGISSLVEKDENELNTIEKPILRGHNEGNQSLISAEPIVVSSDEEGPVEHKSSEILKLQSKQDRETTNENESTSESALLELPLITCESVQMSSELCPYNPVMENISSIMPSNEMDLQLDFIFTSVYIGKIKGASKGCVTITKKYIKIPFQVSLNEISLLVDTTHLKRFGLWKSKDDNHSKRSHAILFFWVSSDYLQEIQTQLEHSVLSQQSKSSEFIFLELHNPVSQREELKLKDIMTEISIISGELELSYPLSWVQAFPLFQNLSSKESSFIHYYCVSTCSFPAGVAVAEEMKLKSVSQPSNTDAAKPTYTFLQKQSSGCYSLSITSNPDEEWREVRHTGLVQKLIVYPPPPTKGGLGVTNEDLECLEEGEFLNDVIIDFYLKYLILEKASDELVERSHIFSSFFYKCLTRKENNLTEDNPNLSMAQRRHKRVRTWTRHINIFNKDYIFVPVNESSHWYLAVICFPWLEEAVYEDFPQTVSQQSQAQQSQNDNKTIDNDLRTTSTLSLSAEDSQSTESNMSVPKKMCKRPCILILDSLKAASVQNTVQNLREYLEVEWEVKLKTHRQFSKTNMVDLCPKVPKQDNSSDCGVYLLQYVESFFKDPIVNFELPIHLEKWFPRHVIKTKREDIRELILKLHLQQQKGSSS
In words: inhibition of human SENP7 cleavage activity – biochemical, luminescence, SAR follow-up (AID 504497). Format: functional.

For assay [3], the target named is T4, Sentrin-specific protease 8 (Homo sapiens, UniProt Q96LD8).
T4 sequence (Q96LD8 whole entry): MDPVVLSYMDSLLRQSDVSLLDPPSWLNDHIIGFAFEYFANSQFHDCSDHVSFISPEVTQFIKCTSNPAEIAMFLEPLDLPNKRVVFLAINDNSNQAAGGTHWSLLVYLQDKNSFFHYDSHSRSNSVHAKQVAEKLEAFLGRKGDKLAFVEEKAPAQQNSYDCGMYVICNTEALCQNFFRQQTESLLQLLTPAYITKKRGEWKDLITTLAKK
In words: inhibition of human SENP8 cleavage activity – biochemical, luminescence, SAR follow-up (AID 504501). Format: functional.

In assay [4] the target is 26S proteasome non-ATPase regulatory subunit 14 (Homo sapiens, UniProt O00487). In words: inhibition of proteasome subunit RPN11 – biochemical, fluorescence polarization, uHTS hits, confirmation (AID 602368). Format: functional. For orientation: In fluorescence polarisation assays a small probe gives low polarisation when free and higher when bound to something large.
26S proteasome non-ATPase regulatory subunit 14, sequence (O00487 whole entry): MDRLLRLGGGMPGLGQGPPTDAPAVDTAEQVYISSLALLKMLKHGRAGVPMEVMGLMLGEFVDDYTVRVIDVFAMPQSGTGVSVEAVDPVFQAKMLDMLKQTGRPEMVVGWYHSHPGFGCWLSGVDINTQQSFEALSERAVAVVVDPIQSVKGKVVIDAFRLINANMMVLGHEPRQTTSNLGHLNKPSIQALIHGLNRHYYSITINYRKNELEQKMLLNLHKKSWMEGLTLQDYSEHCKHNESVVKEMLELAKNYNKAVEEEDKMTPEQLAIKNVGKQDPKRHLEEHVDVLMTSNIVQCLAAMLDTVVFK
The target of assay [5] is 72 kDa type IV collagenase (Homo sapiens, UniProt P08253). As to the kind of experiment: Dose Response validation of uHTS RPN11 inhibitor hits using a MMP-2 Fluorescence assay. Format: functional.
72 kDa type IV collagenase, sequence (P08253 whole entry): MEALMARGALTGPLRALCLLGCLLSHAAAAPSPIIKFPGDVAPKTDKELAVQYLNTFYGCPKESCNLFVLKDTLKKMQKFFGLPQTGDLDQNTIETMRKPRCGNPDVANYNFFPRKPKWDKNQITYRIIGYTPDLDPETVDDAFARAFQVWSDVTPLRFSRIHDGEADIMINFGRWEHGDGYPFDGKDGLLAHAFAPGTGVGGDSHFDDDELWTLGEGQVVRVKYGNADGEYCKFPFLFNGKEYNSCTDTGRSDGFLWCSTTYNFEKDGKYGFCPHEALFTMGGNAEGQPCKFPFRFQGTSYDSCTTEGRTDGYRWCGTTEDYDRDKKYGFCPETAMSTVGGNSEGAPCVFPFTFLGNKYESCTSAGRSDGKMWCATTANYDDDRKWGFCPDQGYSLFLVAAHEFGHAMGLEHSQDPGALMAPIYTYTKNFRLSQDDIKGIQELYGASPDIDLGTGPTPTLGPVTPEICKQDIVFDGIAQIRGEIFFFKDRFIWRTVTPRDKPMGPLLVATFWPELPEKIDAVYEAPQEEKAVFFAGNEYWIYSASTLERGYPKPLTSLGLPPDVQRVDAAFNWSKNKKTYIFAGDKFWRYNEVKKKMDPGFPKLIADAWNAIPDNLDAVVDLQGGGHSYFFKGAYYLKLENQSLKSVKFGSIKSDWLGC
The next assay concerns the target Prothrombin (Bos taurus, UniProt P00735). As to the kind of experiment: thrombin protease inhibitors – biochemical, fluorescence polarization, uHTS hits, dose response (AID 602369). Format: functional.
The target in another assay is Cytochrome P450 3A4 (Homo sapiens, UniProt P08684).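 Note: CYP3A4 tested as one member of a cytochrome P450 panel screen.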
Cytochrome P450 3A4, sequence (P08684 whole entry): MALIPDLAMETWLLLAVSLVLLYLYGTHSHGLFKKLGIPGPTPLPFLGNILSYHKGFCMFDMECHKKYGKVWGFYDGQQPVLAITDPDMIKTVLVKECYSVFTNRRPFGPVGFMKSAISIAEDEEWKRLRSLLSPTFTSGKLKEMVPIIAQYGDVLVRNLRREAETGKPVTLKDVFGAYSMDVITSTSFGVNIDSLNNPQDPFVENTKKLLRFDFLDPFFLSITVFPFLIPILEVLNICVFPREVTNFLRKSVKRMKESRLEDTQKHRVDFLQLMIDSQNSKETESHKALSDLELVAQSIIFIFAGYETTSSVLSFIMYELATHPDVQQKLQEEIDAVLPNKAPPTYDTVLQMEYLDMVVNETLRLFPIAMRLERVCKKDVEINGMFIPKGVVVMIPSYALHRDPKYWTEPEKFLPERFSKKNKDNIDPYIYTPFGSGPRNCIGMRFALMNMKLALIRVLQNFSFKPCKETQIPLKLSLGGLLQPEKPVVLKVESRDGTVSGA
The test system of a further assay is H4. In words: Luminescence Cell-Based Dose Response HTS to Identify Activators of 5'UTR Stem-Loop Driven Prion Protein mRNA Translation in H4 Neuroglioblastoma Cells. [Related pubchem assays: 1829 (Project Summary), 1814 (Primary HTS)]. Format: functional. The following applies: Homo sapiens.
Assay [6] is described as follows: Luminescence Cell-Based Dose Response HTS to Identify Activators of Luciferase Translation or Activity in H4 […] Cells. [Related pubchem assays: 1829 (Project Summary), 1814 (Primary HTS)]. Format: functional.
The target of the next assay is Cytochrome P450 2C19 (Homo sapiens, UniProt P33261). As to the kind of experiment: Cytochrome panel assay with activity outcomes. Panel member name: p450-cyp2c19 Compounds with AC50 equal or less than 10 uM are considered active. Format: functional. The following applies: read-out: AC50.
Cytochrome P450 2C19, sequence (P33261 whole entry): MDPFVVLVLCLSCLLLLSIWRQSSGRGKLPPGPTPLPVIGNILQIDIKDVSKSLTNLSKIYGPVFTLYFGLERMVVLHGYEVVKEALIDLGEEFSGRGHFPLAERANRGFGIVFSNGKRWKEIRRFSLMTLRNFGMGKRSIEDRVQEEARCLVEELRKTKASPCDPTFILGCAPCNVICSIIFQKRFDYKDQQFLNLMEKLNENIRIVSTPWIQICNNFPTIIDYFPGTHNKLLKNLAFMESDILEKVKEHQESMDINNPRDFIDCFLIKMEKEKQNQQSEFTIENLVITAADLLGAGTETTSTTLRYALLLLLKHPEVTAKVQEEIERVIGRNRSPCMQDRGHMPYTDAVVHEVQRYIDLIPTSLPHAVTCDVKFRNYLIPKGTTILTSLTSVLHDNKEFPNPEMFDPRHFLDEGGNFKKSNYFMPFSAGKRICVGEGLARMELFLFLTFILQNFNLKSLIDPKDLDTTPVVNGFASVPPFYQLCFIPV
The nature of assay [7]: Luminescence Cell-Based Dose Confirmation HTS to Identify Activators of 5'UTR Stem-Loop Driven Alpha-Synuclein mRNA Translation in H4 Neuroglioblastoma Cells. [Related pubchem assays: 1829 (Project Summary), 1814 (Primary HTS)]. Format: functional.
The target of the next assay is Cytochrome P450 2C9 (Homo sapiens, UniProt P11712).
Cytochrome P450 2C9, sequence (P11712 whole entry): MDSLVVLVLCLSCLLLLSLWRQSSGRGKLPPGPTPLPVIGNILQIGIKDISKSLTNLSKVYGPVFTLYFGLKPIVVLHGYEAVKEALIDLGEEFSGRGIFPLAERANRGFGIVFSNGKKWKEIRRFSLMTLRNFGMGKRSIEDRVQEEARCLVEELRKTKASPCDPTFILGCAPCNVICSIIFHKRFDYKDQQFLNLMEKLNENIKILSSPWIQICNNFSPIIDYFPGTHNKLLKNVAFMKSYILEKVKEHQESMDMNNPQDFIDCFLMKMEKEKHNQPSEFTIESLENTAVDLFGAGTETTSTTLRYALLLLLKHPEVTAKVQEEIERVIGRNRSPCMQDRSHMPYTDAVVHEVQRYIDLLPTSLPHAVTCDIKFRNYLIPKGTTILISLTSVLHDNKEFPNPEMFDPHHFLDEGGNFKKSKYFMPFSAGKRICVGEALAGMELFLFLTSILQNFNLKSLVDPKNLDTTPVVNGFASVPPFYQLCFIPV
The subject of another assay is HeLa. In words: ATP-based viability loss in HeLa cells – cell-based, CellTiter-Glo luminescence, cherry-pick samples, cytotoxicity control for MITF activator project, dose response (AID 540259). Format: functional. The following applies: Homo sapiens.
Another assay in a line: cells. Format: functional, cell-based.
The target in assay [8] is T5, Nuclear receptor subfamily 0 group B member 1 (Homo sapiens, UniProt P51843).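 Note: HEK293T cells transfected with SF-1 and DAX-1 plus StAR promoter luciferase reporter.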
T5 sequence (P51843 whole entry): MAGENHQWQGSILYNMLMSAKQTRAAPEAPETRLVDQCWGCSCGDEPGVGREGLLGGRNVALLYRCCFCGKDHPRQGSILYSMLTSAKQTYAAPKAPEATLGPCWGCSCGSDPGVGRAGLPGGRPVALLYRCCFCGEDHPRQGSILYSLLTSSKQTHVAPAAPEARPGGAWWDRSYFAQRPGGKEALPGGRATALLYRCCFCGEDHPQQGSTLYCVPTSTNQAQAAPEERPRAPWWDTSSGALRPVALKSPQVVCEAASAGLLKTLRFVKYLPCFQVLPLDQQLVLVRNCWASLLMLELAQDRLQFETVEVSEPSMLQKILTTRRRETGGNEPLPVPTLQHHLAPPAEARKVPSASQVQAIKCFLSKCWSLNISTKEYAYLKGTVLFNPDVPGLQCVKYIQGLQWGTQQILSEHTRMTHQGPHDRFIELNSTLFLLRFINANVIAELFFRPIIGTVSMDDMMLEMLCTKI
Format: functional, cell-based.

Assay [9] concerns the target T6, Probable nicotinate-nucleotide adenylyltransferase (Staphylococcus aureus (strain N315), UniProt P65502). Format: functional, Staphylococcus aureus subsp. aureus N315. The following applies: read-out: IC50_Mean.
Assay [10] has as its target T6, Probable nicotinate-nucleotide adenylyltransferase. Format: functional, Staphylococcus aureus subsp. aureus N315.
The target of a further assay is Melanocortin receptor 4 (Homo sapiens, UniProt P32245). Format: functional, cell-based.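 Note: Cell-based assay with luminescence read-out, confirmatory dose-response testing for agonist activity of biased ligands at MC4R; human U2OS cells with tagged receptor and beta-arrestin; potency of agonists that increase receptor coupling to beta-arrestin.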
Melanocortin receptor 4, sequence (P32245 whole entry): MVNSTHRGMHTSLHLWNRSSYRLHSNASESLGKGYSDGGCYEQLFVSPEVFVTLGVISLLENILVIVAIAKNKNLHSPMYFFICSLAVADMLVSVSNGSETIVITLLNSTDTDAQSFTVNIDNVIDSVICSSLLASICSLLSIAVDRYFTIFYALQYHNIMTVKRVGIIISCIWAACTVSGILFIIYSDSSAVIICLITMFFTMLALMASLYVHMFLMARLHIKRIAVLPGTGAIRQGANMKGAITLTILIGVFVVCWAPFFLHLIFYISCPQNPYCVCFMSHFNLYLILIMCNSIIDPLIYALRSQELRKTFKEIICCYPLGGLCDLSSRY
Another assay deals with H9c2. In words: cells. Format: functional, cell-based. The following applies: Rattus norvegicus, H9c2, Myocardium.
In assay [11] the target is T7, Carboxy-terminal domain RNA polymerase II polypeptide A small phosphatase 1 (Homo sapiens, UniProt Q9GZU7).
T7 sequence (Q9GZU7 whole entry): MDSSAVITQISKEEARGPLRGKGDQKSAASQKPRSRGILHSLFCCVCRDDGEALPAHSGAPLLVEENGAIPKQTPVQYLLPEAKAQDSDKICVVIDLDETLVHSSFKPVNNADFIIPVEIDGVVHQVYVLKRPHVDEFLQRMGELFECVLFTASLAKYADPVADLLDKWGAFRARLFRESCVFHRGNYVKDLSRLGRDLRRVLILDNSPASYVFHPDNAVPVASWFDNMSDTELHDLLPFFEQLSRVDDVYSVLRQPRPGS
In words: CTDSP1 inhibitors, concentration-response, biochemical, absorbance readout, ultra-high-throughput screen actives (AID 540297). Format: functional.

The target in assay [12] is Induced myeloid leukemia cell differentiation protein Mcl-1 (Homo sapiens, UniProt Q07820). Format: functional.
Induced myeloid leukemia cell differentiation protein Mcl-1, sequence (Q07820 whole entry): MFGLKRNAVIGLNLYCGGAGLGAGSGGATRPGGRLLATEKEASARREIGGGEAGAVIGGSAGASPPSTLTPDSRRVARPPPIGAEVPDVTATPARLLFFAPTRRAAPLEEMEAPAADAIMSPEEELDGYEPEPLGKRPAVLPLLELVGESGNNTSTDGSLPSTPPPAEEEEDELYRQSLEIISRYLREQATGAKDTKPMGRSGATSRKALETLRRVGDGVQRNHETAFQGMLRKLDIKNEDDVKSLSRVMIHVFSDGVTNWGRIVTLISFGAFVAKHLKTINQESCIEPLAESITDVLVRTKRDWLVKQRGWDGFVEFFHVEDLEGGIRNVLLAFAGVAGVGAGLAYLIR

The values that follow come from ChEMBL document CHEMBL1201862, “PubChem BioAssay data set” (2004).

The AC50 is the concentration giving half of the maximal activity seen. As usually defined, the EC50 is the concentration needed to bring the measured effect to its halfway point.

Calls of active or inactive are those of the source.
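Throughout, for IC50 Mean: confirmatory dose-response retesting of NadD inhibitor hits first found in an ultra-high-throughput screen.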

T6 sequence (P65502 whole entry): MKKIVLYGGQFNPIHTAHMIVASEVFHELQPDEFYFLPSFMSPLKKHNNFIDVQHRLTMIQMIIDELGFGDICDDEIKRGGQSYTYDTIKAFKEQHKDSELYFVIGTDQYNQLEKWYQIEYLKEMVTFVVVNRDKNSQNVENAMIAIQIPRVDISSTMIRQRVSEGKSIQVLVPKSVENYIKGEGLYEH

With `COc1cccc(-c2noc(/C=C/c3ccccc3Cl)n2)c1`, the IC50 at Caspase-3 is 20 µM (active); in assay [1] it was 14 µM (active); in [2] it was 5.2 µM (active); in assay [3], 18 µM (active).
Consider `COc1cc(/C=C/c2nc(O)c3ccccc3n2)cc(Br)c1O`, for which the IC50 in assay [4] was 0.914 µM (active); in assay [5], > 100 µM (inactive); on Prothrombin, 88 µM (active).
With `CCc1ccc(-c2cc(C(=O)NCc3ccco3)c3ccccc3n2)s1`, the results for the AC50 at Cytochrome P450 3A4, on Cytochrome P450 2C19 and on Cytochrome P450 2C9 were 15.8 µM (inconclusive), 4.47 µM (inconclusive) and 2 µM (inconclusive), respectively. Further, the IC50 is 40.7 µM (active) in assay [4], > 100 µM (inactive) in [5] and 55.8 µM (active) at Prothrombin. In addition, the concentration giving a half-maximal response (EC50) in the assay with H4 is 23.9 µM (active); in assay [6] it was 5.65 µM (active); in [7], 11.2 µM (active).
Regarding `CCCCNc1ccc2c(c1)C1CC2CCN1C(=O)OCc1ccccc1` (stereo unspecified), the AC50 with HeLa was 76.2 µM (active). Besides, the IC50 (in “cells”; in assay [8]) was > 67.5 µM (inactive) throughout.
Regarding `COc1ccc(-n2nc3cc(C)c(NC(C)=O)cc3n2)cc1`, the IC50 in “cells” is > 67.6 µM (inactive); in assay [8] it was > 0.278 µM (active).
Consider `NC(CSC1(c2cccc3ccccc23)c2ccccc2-c2ccccc21)C(=O)O` (stereo unspecified), for which the IC50 was 27.7 µM (active) in assay [9] and 9.51 µM (active) in assay [10].
For `COc1ccccc1-c1cc(NC(C)=O)c2ncc(-c3cccc(C(C)=O)c3)n2c1`, the EC50 on Melanocortin receptor 4 was > 89.2 µM (inactive). In the assay with H9c2, the IC50 was > 79 µM (inactive).
On to `CCOCCCN(Cc1ccco1)C(=O)c1cc2c(=O)[nH]c3ccc(C)cc3c2s1`, for which, on Melanocortin receptor 4, the EC50 was > 89.2 µM (inactive).
Regarding `O=C(N/N=C\C=C\c1ccco1)c1cc(-c2ccc3ccccc3c2)[nH]n1`, the IC50 in assay [11] was 2.96 µM (active); in assay [12], 3.98 µM (active); in assay [9], 20.3 µM (active); in assay [10], 6.68 µM (active).
For `Cc1ccc([S+]([O-])Cc2ccc(C(=O)N3CCN(C4CCCCC4)CC3)o2)cc1` (stereo unspecified), the IC50 (in “cells”; in assay [8]) was > 67.6 µM (inactive) throughout.
Take `COc1ccc(N/N=C/c2c[nH]c3ccccc23)cc1`: the IC50 on Caspase-3 is 19.9 µM (active); in [1], 25.8 µM (active); in assay [2] it was 11.4 µM (active); in assay [3], 29.5 µM (active).
